From US10221139B2, “Inhibitors of histone demethylases” (Gilead Sciences, Inc., priority 2012, dated 2019) come the findings set out here.

What all share (type): biochemical
The target in assay [1] is T1, PLU1 (KDM5B) (Homo sapiens, UniProt Q9UGL1).
T1 construct: 1-809; host or cells: E. coli
T1 sequence (Q9UGL1 1-809): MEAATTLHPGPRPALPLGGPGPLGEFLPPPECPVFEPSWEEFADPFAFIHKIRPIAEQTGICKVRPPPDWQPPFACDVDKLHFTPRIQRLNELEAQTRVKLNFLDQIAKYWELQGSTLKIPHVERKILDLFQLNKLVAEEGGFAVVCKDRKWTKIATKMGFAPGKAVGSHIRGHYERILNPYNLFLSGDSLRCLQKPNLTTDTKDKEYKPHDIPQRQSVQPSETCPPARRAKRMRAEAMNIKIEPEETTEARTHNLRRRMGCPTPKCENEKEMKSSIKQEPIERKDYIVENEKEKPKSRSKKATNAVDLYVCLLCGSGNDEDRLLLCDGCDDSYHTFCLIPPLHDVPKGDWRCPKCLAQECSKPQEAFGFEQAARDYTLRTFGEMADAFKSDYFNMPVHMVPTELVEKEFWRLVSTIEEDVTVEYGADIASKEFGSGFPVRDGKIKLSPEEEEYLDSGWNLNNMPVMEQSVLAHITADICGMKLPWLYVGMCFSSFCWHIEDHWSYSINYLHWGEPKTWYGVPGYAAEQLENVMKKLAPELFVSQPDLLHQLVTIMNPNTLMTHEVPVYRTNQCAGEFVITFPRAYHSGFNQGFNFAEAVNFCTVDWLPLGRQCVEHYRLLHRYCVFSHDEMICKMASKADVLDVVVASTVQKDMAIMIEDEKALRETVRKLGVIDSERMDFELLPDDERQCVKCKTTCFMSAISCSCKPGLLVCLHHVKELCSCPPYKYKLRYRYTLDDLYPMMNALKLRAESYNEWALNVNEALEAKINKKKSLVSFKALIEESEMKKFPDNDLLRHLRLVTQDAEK
The assay is described as follows: Histone lysine demethylase AlphaLISA assay, PLU1. As to conditions: substrate H3K4M3B. Here is the method: (§1) Example 2: Histone Lysine Demethylase AlphaLISA Assays for IC50 Value Determination
(§2) Assays are performed analogously to the protocol described by Perkin Elmer (Roy et al. Perkin Elmer Technical Note: AlphaLISA #12, April 2011).
(§3) Enzymes are dissolved in enzyme buffer and incubated for 10 min before 5 μL is added to 5 μL 3% DMSO solutions of compounds in enzyme buffer. Incubated for another 10 minutes, before 5 μL substrate solution is added and the reaction mixture is incubated at room temperature for the given period. 10 μL acceptor beads, suspended at given dilutions in Epigenetic Buffer (Perkin Elmer AL008) from stock, are added and the suspension is incubated 60 minutes in the dark at room temperature, before 10 μL suspension (at the given dilutions in Epigenetic Buffer) of streptavidin donor beads (Perkin Elmer 6760002) in Epigenetic Buffer is added. After incubation at room temperature in the dark the plates are read. Reaction conditions are seen in Table 2b.

The target in assay [2] is T2, UTX (KDM6A) (Homo sapiens, UniProt O15550).
T2 construct: 919-1401; host or cells: E. coli
The experiment in a line: Histone lysine demethylase AlphaLISA assay, UTX. The settings on record: substrate BK27M3. As for the experimental part:
as §1, §2, §3

Assay [3] addresses T3, GASC1 (KDM4C, JMJD2C) (Homo sapiens, UniProt Q9H3R0).
T3 construct: 1-349; host or cells: E. coli
T3 sequence (Q9H3R0 1-349): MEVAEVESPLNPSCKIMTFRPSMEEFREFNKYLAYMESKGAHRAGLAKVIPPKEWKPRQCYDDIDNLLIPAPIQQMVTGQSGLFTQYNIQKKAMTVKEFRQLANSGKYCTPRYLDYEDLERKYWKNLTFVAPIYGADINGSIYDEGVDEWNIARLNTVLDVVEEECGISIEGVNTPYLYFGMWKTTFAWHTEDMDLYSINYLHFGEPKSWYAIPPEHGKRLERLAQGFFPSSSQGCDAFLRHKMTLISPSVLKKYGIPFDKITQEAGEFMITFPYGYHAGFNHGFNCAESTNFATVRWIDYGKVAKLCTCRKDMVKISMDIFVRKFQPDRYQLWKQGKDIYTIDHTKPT
The assay is described as follows: Histone lysine demethylase AlphaLISA assay, GASC1. As to conditions: substrate BK9M3. As for the experimental part: as §1, §2, §3

T2 sequence (O15550 919-1401): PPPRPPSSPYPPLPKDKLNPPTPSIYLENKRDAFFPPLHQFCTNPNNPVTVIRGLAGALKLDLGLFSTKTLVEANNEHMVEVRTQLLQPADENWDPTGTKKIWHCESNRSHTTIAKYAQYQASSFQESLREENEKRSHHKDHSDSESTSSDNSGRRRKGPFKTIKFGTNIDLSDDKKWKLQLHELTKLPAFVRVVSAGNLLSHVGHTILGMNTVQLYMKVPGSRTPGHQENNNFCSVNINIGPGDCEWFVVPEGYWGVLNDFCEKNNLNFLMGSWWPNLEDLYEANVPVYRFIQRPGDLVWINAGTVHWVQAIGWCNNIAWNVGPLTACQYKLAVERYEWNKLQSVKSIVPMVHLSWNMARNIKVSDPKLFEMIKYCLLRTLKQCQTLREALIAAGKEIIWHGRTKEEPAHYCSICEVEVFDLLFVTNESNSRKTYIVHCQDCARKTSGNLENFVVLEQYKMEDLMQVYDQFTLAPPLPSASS

In the case of “2-[({2-[(2S)-1-benzylpyrrolidin-2-yl]ethyl}amino)methyl]pyridine-4-carboxylic acid [#45]”, the IC50 was less than 0.1 µM in assay [1], not below 1 µM in assay [2] and less than 0.1 µM in assay [3].
Regarding “4-methoxyphenyl 2-({[4-(diethylamino)butyl]amino}methyl)pyridine-4-carboxylate [#51]”, the half-maximal inhibitory concentration (IC50) in assay [1] is less than 0.1 µM; in assay [2] it was not below 1 µM; in assay [3], 0.1 to 1 µM.
Take `O=C(O)c1ccnc(CNC[C@@H](O)CO)c1` [#3, 2-({[(2R)-2,3-dihydroxypropyl]amino}methyl)pyridine-4-carboxylic acid]: the IC50 in assay [1] is less than 0.1 µM; in assay [2], not below 1 µM; in assay [3], 0.1 to 1 µM.
The corresponding values for `O=C(O)c1ccnc(CNCC2CC2)c1` [#4, 2-{[(cyclopropylmethyl)amino]methyl}pyridine-4-carboxylic acid] are less than 0.1 µM, not below 1 µM and 0.1 to 1 µM.
For the compound `CN(C)CCN(C)Cc1cc(C(=O)O)ccn1` [#6, 2-({[2-(dimethylamino)ethyl](methyl)amino}methyl)pyridine-4-carboxylic acid], the values for the IC50 in assay [1] and in assay [2] were 0.1 to 1 µM and not below 1 µM, respectively.
In the case of `C#CCN(C)Cc1cc(C(=O)O)ccn1` [#7, 2-{[methyl(prop-2-yn-1-yl)amino]methyl}pyridine-4-carboxylic acid], the IC50 is 0.1 to 1 µM in assay [1], not below 1 µM in assay [2] and 0.1 to 1 µM in assay [3].
Consider `O=C(O)c1ccnc(CNCCF)c1` [#8, 2-{[(2-fluoroethyl)amino]methyl}pyridine-4-carboxylic acid], for which the half-maximal inhibitory concentration (IC50) in assay [1] was 0.1 to 1 µM; in assay [2], not below 1 µM; in assay [3], 0.1 to 1 µM.
In the case of `O=C(O)c1ccnc(CNCc2ccco2)c1` [#9, 2-{[(furan-2-ylmethyl)amino]methyl}pyridine-4-carboxylic acid], the half-maximal inhibitory concentration (IC50) in assay [2] was not below 1 µM; in assay [3] it was less than 0.1 µM.
For the compound `O=C(O)c1ccnc(CNCc2ccc(-c3ccccc3)o2)c1` [#10, 2-({[(5-phenylfuran-2-yl)methyl]amino}methyl)pyridine-4-carboxylic acid], the values for the IC50 in assay [1], in assay [2] and in assay [3] were 0.1 to 1 µM, not below 1 µM and not below 1 µM, respectively.
Regarding `CSCCNCc1cc(C(=O)O)ccn1` [#12, 2-({[2-(methylsulfanyl)ethyl]amino}methyl)pyridine-4-carboxylic acid], the IC50 in assay [1] was less than 0.1 µM; in assay [2], not below 1 µM; in assay [3] it was less than 0.1 µM.
Regarding `COCCN1CCN(C(=O)CNCc2cc(C(=O)O)ccn2)CC1` [#16, 2-[({2-[4-(2-methoxyethyl)piperazin-1-yl]-2-oxoethyl}amino)methyl]pyridine-4-carboxylic acid], the half-inhibitory concentration (IC50) is less than 0.1 µM in assay [1], not below 1 µM in assay [2] and less than 0.1 µM in assay [3].
In the case of `C=CCN(CC=C)C(=O)CNCc1cc(C(=O)O)ccn1` [#17, 2-[({[bis(prop-2-en-1-yl)carbamoyl]methyl}amino)methyl]pyridine-4-carboxylic acid], the IC50 in assay [1] was less than 0.1 µM; in assay [2], not below 1 µM; in assay [3], less than 0.1 µM.
Consider `COC(=O)c1ccnc(CNCCCN2CCCC2)c1` [#47, methyl 2-({[3-(pyrrolidin-1-yl)propyl]amino}methyl)pyridine-4-carboxylate], for which the figures for the IC50 in assay [1] and in assay [3] were 0.1 to 1 µM and not below 1 µM, respectively.
The corresponding values for `CCN(CCN(C)C)C(=O)CNCc1cc(C(=O)Oc2ccc(C(C)(C)C)cc2)ccn1` [#61, 4-tert-butylphenyl 2-{[({[2-(dimethylamino)ethyl](ethyl)carbamoyl}methyl)amino]methyl}pyridine-4-carboxylate] are less than 0.1 µM and less than 0.1 µM.
The corresponding values for `CCN(CCN(C)C)C(=O)CNCc1cc(C(=O)OC(C)CC(C)=O)ccn1` (stereo not drawn) [#62, 4-oxopentan-2-yl 2-{[({[2-(dimethylamino)ethyl](ethyl)carbamoyl}methyl)amino]methyl}pyridine-4-carboxylate] are less than 0.1 µM and less than 0.1 µM.
The corresponding values for `CCN(CCN(C)C)C(=O)CNCc1cc(C(=O)OC(C)CCNC(=O)C(F)(F)F)ccn1` (stereo not drawn) [#63, 4-(trifluoroacetamido)butan-2-yl 2-{[({[2-(dimethylamino)ethyl](ethyl)carbamoyl}methyl)amino]methyl}pyridine-4-carboxylate] are 0.1 to 1 µM and 0.1 to 1 µM.
Turning to `CCN(CCN(C)C)C(=O)CNCc1cc(C(=O)OC(CNC(=O)C(F)(F)F)CC(=O)OC(C)C)ccn1` (stereo not drawn) [#73, propan-2-yl 3-(2-{[({[2-(dimethylamino)ethyl](ethyl)carbamoyl}methyl)amino]methyl}pyridine-4-carbonyloxy)-4-(trifluoroacetamido)butanoate], the IC50 in assay [1] and in assay [3] was 0.1 to 1 µM each time.
`CCN(CCN(C)C)C(=O)CNCc1cc(C(=O)OC(CCNC(=O)C(F)(F)F)CC(=O)OC(C)C)ccn1` (stereo not drawn) [#74, propan-2-yl 3-(2-{[({[2-(dimethylamino)ethyl](ethyl)carbamoyl}methyl)amino]methyl}pyridine-4-carbonyloxy)-5-(trifluoroacetamido)pentanoate]: the IC50 in assay [1] is less than 0.1 µM; in assay [3], 0.1 to 1 µM.
As for `CCN(CCN(C)C)C(=O)CNCc1cc(C(=O)Nc2ccncc2)ccn1` [#75, 2-{[({[2-(dimethylamino)ethyl](ethyl)carbamoyl}methyl)amino]methyl}-N-(pyridin-4-yl)pyridine-4-carboxamide], the concentration for half-maximal inhibition (IC50) in assay [1] was less than 0.1 µM; in assay [3] it was 0.1 to 1 µM.
Consider `CCN(CCN(C)C)C(=O)CNCc1cc(C(=O)Nc2nnc(C)o2)ccn1` [#76, 2-{[({[2-(dimethylamino)ethyl](ethyl)carbamoyl}methyl)amino]methyl}-N-(5-methyl-1,3,4-oxadiazol-2-yl)pyridine-4-carboxamide], for which the 50% inhibitory concentration (IC50) in assay [1] and in assay [3] was less than 0.1 µM each time.
With `CCN(CCN(C)C)C(=O)CNCc1cc(C(=O)Nc2ccnn2C)ccn1` [#77, 2-{[({[2-(dimethylamino)ethyl](ethyl)carbamoyl}methyl)amino]methyl}-N-(1-methyl-1H-pyrazol-5-yl)pyridine-4-carboxamide], the IC50 in assay [1] and in assay [3] was less than 0.1 µM each time.
For `O=C(O)c1ccnc(CN2CCCCC2)c1` [#78, 2-(piperidin-1-ylmethyl)pyridine-4-carboxylic acid], the half-maximal inhibitory concentration (IC50) in assay [1] and in assay [3] was not below 1 µM in each case.
As to `CCN(CCN(C)C)C(=O)CNCc1cc(C(=O)Nc2ncco2)ccn1` [#84, 2-{[({[2-(dimethylamino)ethyl](ethyl)carbamoyl}methyl)amino]methyl}-N-(1,3-oxazol-2-yl)pyridine-4-carboxamide], the IC50 in assay [1] and in assay [3] was less than 0.1 µM throughout.
Take `CCN(CCN(C)C)C(=O)CNCc1cc(C(=O)Oc2c(OC(C)C)cccc2OC(C)C)ccn1` [#85, 2,6-bis(propan-2-yloxy)phenyl 2-{[({[2-(dimethylamino)ethyl](ethyl)carbamoyl}methyl)amino]methyl}pyridine-4-carboxylate]: the half-inhibitory concentration (IC50) in assay [1] and in assay [3] was 0.1 to 1 µM in each case.
In the case of `CC(C)C[C@@H](C(=O)N1CCCCC1)N(C)Cc1cc(C(=O)O)ccn1` [#93, 2-({methyl[(2S)-4-methyl-1-oxo-1-(piperidin-1-yl)pentan-2-yl]amino}methyl)pyridine-4-carboxylic acid], the concentration for half-maximal inhibition (IC50) in assay [1] and in assay [3] was not below 1 µM each time.
